Data published in ChEMBL document CHEMBL1201862, “PubChem BioAssay data set” (2004).
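Values below derive from 48-hour exposures of cells grown in 96-well plates, with endpoints linearly interpolated between the two concentrations bracketing the appropriate inhibition level. GI50: concentration for 50% inhibition of growth.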 Activity calls are given as the source filed them. Rule as the data show it: active = GI50 up to about 1.1 µM and inactive = higher.

Assays:
Assay in all cases: DTP human tumour cell line panel, 48 h
IGROV-1 = test system: IGROV-1
HL-60 = test system: HL-60
NCI-H226 = test system: NCI-H226
SK-MEL-5 = test system: SK-MEL-5
UO-31 = test system: UO-31
TK-10 = test system: TK-10
NCI/ADR-RES = test system: NCI/ADR-RES
PC-3 = test system: PC-3
SN12C = test system: SN12C
OVCAR-8 = test system: OVCAR-8
LOX IMVI = test system: LOX IMVI
SF-268 = test system: SF-268
786-0 = test system: 786-0
M14 = test system: M14
HCT-116 = test system: HCT-116
HT-29 = test system: HT-29
MDA-N = test system: MDA-N
NCI-H522 = test system: NCI-H522
A498 = test system: A498

| Structure (SMILES) | GI50 (IGROV-1) | GI50 (HL-60) | GI50 (NCI-H226) | GI50 (SK-MEL-5) | GI50 (UO-31) | GI50 (TK-10) | GI50 (NCI/ADR-RES) | GI50 (PC-3) | GI50 (SN12C) | GI50 (OVCAR-8) | GI50 (LOX IMVI) | GI50 (SF-268) | GI50 (786-0) | GI50 (M14) | GI50 (HCT-116) | GI50 (HT-29) | GI50 (MDA-N) | GI50 (NCI-H522) | GI50 (A498) |
| --- | --- | --- | --- | --- | --- | --- | --- | --- | --- | --- | --- | --- | --- | --- | --- | --- | --- | --- | --- |
| CC1(C)[C@H]2Cc3cc4nc5ccccn5c4cc3[C@@H]1C2 | 19 µM (inactive) | 22.4 µM (inactive) | 16.2 µM (inactive) | 17.6 µM (inactive) | 14 µM (inactive) | 16.3 µM (inactive) | 18.2 µM (inactive) | 17.9 µM (inactive) | 19.2 µM (inactive) | 14.6 µM (inactive) | 19.6 µM (inactive) | 17.6 µM (inactive) | 17.2 µM (inactive) | 19.8 µM (inactive) | 17.5 µM (inactive) | 14.1 µM (inactive) | 17.3 µM (inactive) | 4.58 µM (inactive) |  |
| COc1cccc(/N=N/C(=N/NC(=O)c2cc(Cl)ccc2O)c2ccc(N(CCC#N)CCC#N)cc2C)c1 | 23.3 µM (inactive) |  | 26.2 µM (inactive) | 29.9 µM (inactive) | 38.8 µM (inactive) | 48.8 µM (inactive) | 49 µM (inactive) | 23.2 µM (inactive) | 27.5 µM (inactive) | 16.9 µM (inactive) |  | 47.1 µM (inactive) | 43.3 µM (inactive) | 42.3 µM (inactive) | 18.8 µM (inactive) | 5.85 µM (inactive) | 41.1 µM (inactive) | 9.1 µM (inactive) | 26.4 µM (inactive) |
| COP(=O)(OC)C(NC=O)P(=O)(OC)OC | > 100 µM (inactive) | > 100 µM (inactive) | > 100 µM (inactive) | > 100 µM (inactive) | > 100 µM (inactive) | > 100 µM (inactive) | > 100 µM (inactive) | > 100 µM (inactive) | > 100 µM (inactive) | > 100 µM (inactive) | > 100 µM (inactive) | > 100 µM (inactive) | > 100 µM (inactive) | > 100 µM (inactive) | > 100 µM (inactive) | > 100 µM (inactive) | > 100 µM (inactive) |  | > 100 µM (inactive) |
| Cc1ccc(C(=O)N/N=C(\N=N\c2ccccc2[N+](=O)[O-])c2ccc(N(C)C)cc2)cc1 | > 100 µM (inactive) | 84.9 µM (inactive) | > 100 µM (inactive) | > 100 µM (inactive) | 89.1 µM (inactive) | > 100 µM (inactive) | > 100 µM (inactive) | > 100 µM (inactive) | > 100 µM (inactive) | > 100 µM (inactive) | > 100 µM (inactive) | > 100 µM (inactive) | > 100 µM (inactive) | > 100 µM (inactive) | > 100 µM (inactive) | > 100 µM (inactive) | > 100 µM (inactive) | > 100 µM (inactive) |  |
| COc1cc(C2=C(C)[C@@H]3CN(CC=C3c3ccc(Cl)cc3)C2)c(S(=O)(=O)O)cc1OC | > 100 µM (inactive) |  | > 100 µM (inactive) | > 100 µM (inactive) | > 100 µM (inactive) | > 100 µM (inactive) | > 100 µM (inactive) | > 100 µM (inactive) | > 100 µM (inactive) | > 100 µM (inactive) | > 100 µM (inactive) | > 100 µM (inactive) | > 100 µM (inactive) | > 100 µM (inactive) | > 100 µM (inactive) | > 100 µM (inactive) | > 100 µM (inactive) | > 100 µM (inactive) |  |
| C=C1C(=O)[C@@]23CC[C@@H]4[C@@]5(C)CCC[C@@]4(OC5=O)C2(C)CC[C@]1(OC)C3 (some centres undefined) | 1.97 µM (inactive) |  |  | 1.59 µM (inactive) | 1.79 µM (inactive) | 1.38 µM (inactive) | 1.45 µM (inactive) | 1.05 µM (active) | 1.73 µM (inactive) | 0.611 µM (active) | 0.232 µM (active) | 2.14 µM (inactive) | 0.279 µM (active) | 1.72 µM (inactive) | 0.423 µM (active) | 0.36 µM (active) | 0.52 µM (active) | 0.406 µM (active) |  |
